pIC50: −log10 of the molar value. Active and inactive are the calls of the source. The calls are words filed in the database; no cut-off is given here.

In general, pIC50 refers to −log10 of the IC50, conventionally taken in molar units. A lower pIC50 goes with a high IC50.

Assay [1] relates to A-431. Description: Antiproliferative activity against human A431 cells after 72 hrs by SRB assay. The assay is classed as functional, cell-based. The following applies: A-431, 72 h.
Assay [2] deals with Epidermal growth factor receptor (Homo sapiens, UniProt P00533, L858M/T790M). In words: Inhibition of EGFR T790M/[…] double mutant (unknown origin) expressed in baculovirus expression system using poly (Glu, Tyr) 4:1 as substrate after 60 mins by ELISA. Background: An ELISA detects its analyte on a solid surface through an enzyme-linked reagent.
In assay [3] the test system is NCI-H1975. Description: Antiproliferative activity against human NCI-H1975 cells expressing EGFR T790M mutant after 72 hrs by SRB assay. The assay is classed as functional, cell-based. The following applies: NCI-H1975, 72 h.
The target in assay [4] is T1, Epidermal growth factor receptor (Homo sapiens, UniProt P00533). Description: Inhibition of wild type EGFR (unknown origin) expressed in baculovirus expression system using poly (Glu, Tyr) 4:1 as substrate after 60 mins by ELISA.
For assay [5], the target named is T1, Epidermal growth factor receptor. Description: Inhibition of EGF-induced EGFR phosphorylation in human A431 cells assessed as decrease in AKT phosphorylation at 0.01 to 10 uM incubated for 1 hr prior to EGF induction measured after 10 mins by Western blotting analysis. The assay is classed as cell-based. Particulars: A-431. (In general: Immunoblotting shows a protein as a band on a membrane.)

Assay [6] has the same target. In words: Inhibition of EGF-induced EGFR phosphorylation in human A431 cells incubated for 1 hr prior to EGF induction measured after 10 mins by Western blotting analysis. It counts as cell-based. The following applies: A-431.
Assay [7] has the same target. In words: Inhibition of EGF-induced EGFR phosphorylation in human A431 cells assessed as decrease in ERK phosphorylation at 0.01 to 10 uM incubated for 1 hr prior to EGF induction measured after 10 mins by Western blotting analysis. It counts as cell-based. Particulars: A-431.
For assay [8] the target is unchanged. In words: Inhibition of EGF-induced EGFR phosphorylation in human A431 cells at 0.01 uM incubated for 1 hr prior to EGF induction measured after 10 mins by Western blotting analysis. It counts as cell-based. Particulars: A-431.
Assay [9] has as its system Epidermal growth factor receptor (Homo sapiens), P00533 [T790M]. In words: Inhibition of EGF-induced EGFR T790M mutant autophosphorylation in human NCI-H1975 cells at 10 uM incubated for 1 hr prior to EGF induction measured after 10 mins by Western blotting analysis. The assay is classed as cell-based.
Assay [10] has the same test system. Description: Inhibition of EGF-induced EGFR T790M mutant phosphorylation in human NCI-H1975 cells assessed as AKT phosphorylation at < 10 uM incubated for 1 hr prior to EGF induction measured after 10 mins by Western blotting analysis. The assay is classed as cell-based.
For assay [11] the test system is unchanged. In words: Inhibition of EGF-induced EGFR T790M mutant phosphorylation in human NCI-H1975 cells assessed as ERK phosphorylation at < 10 uM incubated for 1 hr prior to EGF induction measured after 10 mins by Western blotting analysis. It counts as cell-based.

T1 sequence (P00533 whole entry): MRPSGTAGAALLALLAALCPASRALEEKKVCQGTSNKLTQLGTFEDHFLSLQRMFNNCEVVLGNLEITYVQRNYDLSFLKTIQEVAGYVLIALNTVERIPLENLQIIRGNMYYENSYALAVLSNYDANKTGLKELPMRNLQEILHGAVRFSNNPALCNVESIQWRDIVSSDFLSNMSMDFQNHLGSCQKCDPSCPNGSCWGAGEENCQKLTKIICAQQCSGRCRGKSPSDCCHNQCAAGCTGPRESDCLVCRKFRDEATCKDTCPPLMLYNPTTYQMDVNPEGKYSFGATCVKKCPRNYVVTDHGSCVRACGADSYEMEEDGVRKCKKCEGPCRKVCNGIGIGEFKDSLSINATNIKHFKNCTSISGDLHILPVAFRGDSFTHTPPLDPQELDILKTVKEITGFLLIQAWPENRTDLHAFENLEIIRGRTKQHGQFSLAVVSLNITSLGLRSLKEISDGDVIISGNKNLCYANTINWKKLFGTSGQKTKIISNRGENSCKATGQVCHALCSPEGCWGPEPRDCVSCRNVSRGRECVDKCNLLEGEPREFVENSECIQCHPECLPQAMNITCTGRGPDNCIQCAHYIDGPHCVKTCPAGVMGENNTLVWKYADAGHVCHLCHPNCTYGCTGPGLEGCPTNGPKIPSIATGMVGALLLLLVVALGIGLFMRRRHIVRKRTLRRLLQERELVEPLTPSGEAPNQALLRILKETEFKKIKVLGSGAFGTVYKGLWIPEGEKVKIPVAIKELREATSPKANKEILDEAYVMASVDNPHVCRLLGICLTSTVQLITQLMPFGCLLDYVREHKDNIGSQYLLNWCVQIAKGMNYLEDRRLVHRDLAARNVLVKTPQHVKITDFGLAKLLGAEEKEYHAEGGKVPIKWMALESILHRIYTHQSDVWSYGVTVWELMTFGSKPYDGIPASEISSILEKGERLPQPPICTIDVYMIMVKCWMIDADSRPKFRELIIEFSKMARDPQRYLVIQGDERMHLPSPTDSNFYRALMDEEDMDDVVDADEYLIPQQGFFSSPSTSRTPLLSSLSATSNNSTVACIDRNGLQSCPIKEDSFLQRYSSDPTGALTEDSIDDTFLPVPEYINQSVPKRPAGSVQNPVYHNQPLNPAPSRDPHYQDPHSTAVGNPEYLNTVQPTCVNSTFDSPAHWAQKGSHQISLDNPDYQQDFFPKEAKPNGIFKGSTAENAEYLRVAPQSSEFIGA
Epidermal growth factor receptor (Homo sapiens), P00533 [T790M], sequence (P00533 whole entry T790M): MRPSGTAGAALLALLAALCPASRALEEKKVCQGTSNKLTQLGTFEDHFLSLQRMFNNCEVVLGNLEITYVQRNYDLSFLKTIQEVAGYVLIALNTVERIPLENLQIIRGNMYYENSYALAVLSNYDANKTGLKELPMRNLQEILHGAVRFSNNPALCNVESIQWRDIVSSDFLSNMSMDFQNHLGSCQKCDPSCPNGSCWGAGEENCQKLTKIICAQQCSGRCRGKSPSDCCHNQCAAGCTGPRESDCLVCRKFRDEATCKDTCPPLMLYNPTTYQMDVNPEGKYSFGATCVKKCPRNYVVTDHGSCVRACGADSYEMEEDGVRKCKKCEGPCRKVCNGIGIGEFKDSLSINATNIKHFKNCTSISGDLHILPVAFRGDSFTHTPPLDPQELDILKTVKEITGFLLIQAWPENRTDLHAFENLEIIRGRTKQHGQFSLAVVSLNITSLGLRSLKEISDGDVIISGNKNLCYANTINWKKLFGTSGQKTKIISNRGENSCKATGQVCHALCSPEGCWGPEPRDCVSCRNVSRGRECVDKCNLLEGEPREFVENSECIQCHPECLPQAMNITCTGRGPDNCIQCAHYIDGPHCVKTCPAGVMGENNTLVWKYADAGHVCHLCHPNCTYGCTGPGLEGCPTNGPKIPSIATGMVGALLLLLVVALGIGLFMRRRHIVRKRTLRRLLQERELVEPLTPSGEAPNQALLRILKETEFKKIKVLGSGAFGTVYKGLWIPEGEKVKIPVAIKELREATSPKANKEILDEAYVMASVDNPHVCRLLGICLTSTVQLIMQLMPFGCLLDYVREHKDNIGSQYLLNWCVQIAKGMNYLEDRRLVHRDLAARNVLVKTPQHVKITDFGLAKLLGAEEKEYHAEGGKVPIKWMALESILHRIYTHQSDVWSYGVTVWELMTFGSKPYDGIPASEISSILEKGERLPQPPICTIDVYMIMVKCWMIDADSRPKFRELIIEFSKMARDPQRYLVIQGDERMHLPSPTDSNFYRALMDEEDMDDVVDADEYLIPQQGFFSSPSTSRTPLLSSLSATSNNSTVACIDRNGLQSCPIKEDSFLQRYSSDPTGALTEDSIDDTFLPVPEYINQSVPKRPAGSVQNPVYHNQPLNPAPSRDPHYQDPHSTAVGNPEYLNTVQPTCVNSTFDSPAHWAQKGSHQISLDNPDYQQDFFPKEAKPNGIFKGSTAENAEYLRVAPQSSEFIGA
Epidermal growth factor receptor (Homo sapiens, UniProt P00533, L858M/T790M), sequence (P00533 25-1210 T790M/L858M limits assumed): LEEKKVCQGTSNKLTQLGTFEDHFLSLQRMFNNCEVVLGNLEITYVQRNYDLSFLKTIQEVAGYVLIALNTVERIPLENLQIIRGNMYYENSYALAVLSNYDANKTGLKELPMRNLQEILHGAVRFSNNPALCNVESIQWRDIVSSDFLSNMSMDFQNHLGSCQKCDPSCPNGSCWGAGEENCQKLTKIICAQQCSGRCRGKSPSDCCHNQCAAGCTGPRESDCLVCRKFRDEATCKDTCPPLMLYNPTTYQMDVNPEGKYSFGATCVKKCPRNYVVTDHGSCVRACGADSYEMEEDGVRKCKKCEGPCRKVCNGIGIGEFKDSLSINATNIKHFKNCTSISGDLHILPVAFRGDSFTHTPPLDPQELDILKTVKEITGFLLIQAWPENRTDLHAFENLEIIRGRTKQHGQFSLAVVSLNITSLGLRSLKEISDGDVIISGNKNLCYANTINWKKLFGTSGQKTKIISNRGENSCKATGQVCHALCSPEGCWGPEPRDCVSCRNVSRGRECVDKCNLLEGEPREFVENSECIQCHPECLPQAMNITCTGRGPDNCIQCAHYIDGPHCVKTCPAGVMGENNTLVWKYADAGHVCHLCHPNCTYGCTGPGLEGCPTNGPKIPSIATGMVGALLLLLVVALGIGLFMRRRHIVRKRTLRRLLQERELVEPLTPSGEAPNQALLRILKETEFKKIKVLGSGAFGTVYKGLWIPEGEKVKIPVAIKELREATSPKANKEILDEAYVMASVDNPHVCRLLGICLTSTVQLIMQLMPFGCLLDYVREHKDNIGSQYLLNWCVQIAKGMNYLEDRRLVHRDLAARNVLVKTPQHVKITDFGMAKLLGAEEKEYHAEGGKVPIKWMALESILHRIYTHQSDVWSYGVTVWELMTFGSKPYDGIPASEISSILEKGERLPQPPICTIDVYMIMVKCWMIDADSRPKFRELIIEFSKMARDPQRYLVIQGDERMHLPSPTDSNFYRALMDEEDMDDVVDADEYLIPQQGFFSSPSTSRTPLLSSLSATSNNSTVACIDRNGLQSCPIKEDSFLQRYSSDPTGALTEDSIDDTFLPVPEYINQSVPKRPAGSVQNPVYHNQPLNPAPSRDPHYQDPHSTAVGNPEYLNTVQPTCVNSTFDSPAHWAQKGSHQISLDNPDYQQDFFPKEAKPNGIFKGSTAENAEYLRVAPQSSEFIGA

As for `O=C(Nc1cc2c(Nc3ccc(F)c(Cl)c3)ncnc2cc1O[C@H]1CCOC1)N1CCC(N2CCCC2)CC1`, the pIC50 was 6.50 in [1], 5.80 in assay [2], 5.02 in assay [3] and 6.58 in [4].

On to `COCCNC(=O)Nc1cc2c(Nc3ccc(F)c(Cl)c3)ncnc2cc1O[C@H]1CCOC1`, for which the pIC50 in assay [1] is 6.41; in assay [2], 5.45; in assay [3], 5.08; in [4], 6.32.

In assay [3], `CN(C)C/C=C/C(=O)Nc1cc2c(Nc3ccc(F)c(Cl)c3)ncnc2cc1O[C@H]1CCOC1` [AFATINIB] gave a negative-log IC50 (pIC50) of 6.83.

On to `O=C(Nc1cc2c(Nc3ccc(F)c(Cl)c3)ncnc2cc1O[C@H]1CCOC1)N1CC(F)C1`, for which the negative logarithm of the IC50 (pIC50) was 5.24 in assay [1], 5.66 in assay [2], 4.87 in assay [3] and 6.01 in [4].

Turning to `C#CCNC(=O)Nc1cc2c(Nc3ccc(F)c(Cl)c3)ncnc2cc1O[C@H]1CCOC1`, the negative logarithm of the IC50 (pIC50) is 5.43 in assay [1], 6.43 in assay [2], 4.83 in assay [3] and 6.63 in [4].

In the case of `CN(C)CCCNC(=O)Nc1cc2c(Nc3ccc(F)c(Cl)c3)ncnc2cc1O[C@H]1CCOC1`, the inhibition entry in assay [5], in assay [7] and in [8] was “Active” throughout. For the same compound, the inhibition entry in [6] is “Dose-dependent effect”. Moreover, the negative logarithm of the IC50 (pIC50) in assay [1] is 6.65; in assay [2], 6.56; in assay [3], 5.20; in [4] it was 7.62.

Turning to `CCN(CC)CCN(C)C(=O)Nc1cc2c(Nc3ccc(F)c(Cl)c3)ncnc2cc1O[C@H]1CCOC1`, the negative-log IC50 (pIC50) in assay [1] is 6.32; in [2], 6.41; in assay [3], 5.08; in assay [4] it was 6.30.

Regarding `CN(C)CCNC(=O)Nc1cc2c(Nc3ccc(F)c(Cl)c3)ncnc2cc1O[C@H]1CCOC1`, the negative logarithm of the IC50 (pIC50) in [1] was 6.09; in assay [2] it was 5.68; in assay [3] it was 5.33; in assay [4] it was 6.20.

As to `O=C(Nc1cc2c(Nc3ccc(F)c(Cl)c3)ncnc2cc1O[C@H]1CCOC1)N1CC(O)C1`, the pIC50 was 5.71 in assay [1], 5.85 in [2], 4.49 in assay [3] and 6.27 in assay [4].

Take `O=C(Nc1cc2c(Nc3ccc(F)c(Cl)c3)ncnc2cc1O[C@H]1CCOC1)N1CCC(F)(F)C1`: the pIC50 in [1] was 5.83; in assay [2] it was 5.51; in [3] it was 5.35; in [4] it was 5.80.

Take `O=C(Nc1cc2c(Nc3ccc(F)c(Cl)c3)ncnc2cc1O[C@H]1CCOC1)N1CCCC(F)(F)C1`: the negative-log IC50 (pIC50) in assay [1] was 6.03; in assay [2], 5.72; in assay [3], 4.36; in [4] it was 6.05.

As for `COC(CCNC(=O)Nc1cc2c(Nc3ccc(F)c(Cl)c3)ncnc2cc1O[C@H]1CCOC1)OC`, the negative logarithm of the IC50 (pIC50) in assay [1] was 4.66; in [2] it was 6.40; in assay [3], < 4.00; in assay [4], 6.26.

With `O=C(Nc1cc2c(Nc3ccc(F)c(Cl)c3)ncnc2cc1O[C@H]1CCOC1)N1CCC(F)CC1`, the pIC50 is 5.52 in [1], 5.74 in assay [2], 4.48 in assay [3] and 6.16 in [4].

As to `O=C(Nc1cc2c(Nc3ccc(F)c(Cl)c3)ncnc2cc1O[C@H]1CCOC1)N1CCC(F)(F)CC1`, the negative logarithm of the IC50 (pIC50) in assay [1] was 5.73; in [2], 5.27; in assay [3], 4.49; in [4] it was 6.07.

As to `CN(C)CCCN(C)C(=O)Nc1cc2c(Nc3ccc(F)c(Cl)c3)ncnc2cc1O[C@H]1CCOC1`, the negative-log IC50 (pIC50) was 6.70 in [1], 5.28 in assay [2], 5.48 in assay [3] and 6.33 in [4].

Regarding `O=C(NCCO)Nc1cc2c(Nc3ccc(F)c(Cl)c3)ncnc2cc1O[C@H]1CCOC1`, the negative logarithm of the IC50 (pIC50) in [1] is 6.22; in assay [3], 4.75.

In the case of `O=C(Nc1cc2c(Nc3ccc(F)c(Cl)c3)ncnc2cc1O[C@H]1CCOC1)N1CCC2(CC1)OCCO2`, the pIC50 in [1] is 5.66; in assay [2] it was 5.29; in assay [3], 4.49; in assay [4] it was 5.77.

In the case of `O=C(NCCN1CCCCC1)Nc1cc2c(Nc3ccc(F)c(Cl)c3)ncnc2cc1O[C@H]1CCOC1`, the pIC50 was 6.94 in [1], 6.35 in [2], 5.49 in assay [3] and 6.78 in assay [4].

As to `CCN(CC)CCNC(=O)Nc1cc2c(Nc3ccc(F)c(Cl)c3)ncnc2cc1O[C@H]1CCOC1`, the pIC50 in [1] is 6.60; in [2], 5.65; in assay [3], 5.28; in [4] it was 6.44.

With `O=C(Nc1cc2c(Nc3ccc(F)c(Cl)c3)ncnc2cc1O[C@H]1CCOC1)N1CCN(CCO)CC1`, the pIC50 in assay [1] is 5.95; in [2], 5.38; in assay [3] it was 4.74; in [4], 6.48.

On to `CN(C)CCN(C)C(=O)Nc1cc2c(Nc3ccc(F)c(Cl)c3)ncnc2cc1O[C@H]1CCOC1`, for which the pIC50 in assay [1] was 6.35; in [2], 6.17; in [3], 5.09; in assay [4], 6.55.

Turning to `COC(=O)/C=C/CNC(=O)Nc1cc2c(Nc3ccc(F)c(Cl)c3)ncnc2cc1O[C@H]1CCOC1`, the pIC50 in [1] is 5.85; in assay [2], 6.58; in assay [3] it was 5.02; in assay [4], 6.39.

Take `COCCCNC(=O)Nc1cc2c(Nc3ccc(F)c(Cl)c3)ncnc2cc1O[C@H]1CCOC1`: the negative logarithm of the IC50 (pIC50) in assay [1] was 5.39; in [2] it was 5.78; in assay [3], 4.64; in assay [4], 6.71.

`CS(=O)(=O)CCNC(=O)Nc1cc2c(Nc3ccc(F)c(Cl)c3)ncnc2cc1O[C@H]1CCOC1`: the negative logarithm of the IC50 (pIC50) was 5.80 in assay [1], 6.17 in assay [2], 4.45 in [3] and 7.39 in [4].

As for `O=C(NCCN1CCOCC1)Nc1cc2c(Nc3ccc(F)c(Cl)c3)ncnc2cc1O[C@H]1CCOC1`, the inhibition entry in [9] is “Active”. The pIC50 is 6.51 in assay [1], 7.31 in [2], 5.28 in [3] and 7.09 in [4]. For the same compound, the inhibition entry in assay [10] and in assay [11] was “inactive” each time.

In the case of `CN1CCN(C(=O)Nc2cc3c(Nc4ccc(F)c(Cl)c4)ncnc3cc2O[C@H]2CCOC2)CC1`, the pIC50 was 6.17 in assay [1], 5.25 in assay [2], 4.91 in [3] and 6.33 in assay [4].

Turning to `O=C(Nc1cc2c(Nc3ccc(F)c(Cl)c3)ncnc2cc1O[C@H]1CCOC1)N1CCC(CCO)CC1`, the pIC50 is 6.12 in assay [1], 5.53 in assay [2], 4.60 in [3] and 6.52 in assay [4].

Values taken from ChEMBL document CHEMBL3091333, “Design, synthesis and biological evaluation of novel 4-anilinoquinazolines with C-6 urea-linked side chains as inhibitors of the epidermal growth factor receptor” (Bioorg Med Chem, 2013).
